Reference: patent US11254965B2 (priority 2015, dated 2022)
Read-outs that look alike come from different tables or passages of the source.

How the values were obtained:
[1] = system: CLso; type: cell-based, Candidatus Liberibacter solanacearum; conditions: 48 h treatment, CLso-potato hairy roots
[2] = system: Lso; type: cell-based, Candidatus Liberibacter solanacearum; conditions: 100 mg/L penicillin

CC/C=C\CC1C(=O)CCC1CC(=O)OC (stereo not shown) [methyl-JA, methyl jasmonate]
relative CLso titers versus DMSO control ([1]; 10 uM): suppressed CLso
relative CLso titers versus DMSO control ([1]; 10 uM, listed as methyl-jasmonate): decreased CLso titers

O=C(O)c1ccccc1O [salicylic acid]
relative CLso titers versus DMSO control ([1]; 100 uM): no significant effect

penicillin
Lso titer versus Lso colonized hairy roots not exposed ([2]; 2 days of exposure): significantly lower titer of Lso
Lso titer versus Lso colonized hairy roots not exposed ([2]; 7 days of exposure): significantly lower titer of Lso
relative CLso titers versus DMSO control ([1]; 100 ppm): significantly suppressed CLso titers
relative CLso titers versus DMSO control ([1]; 100 ppm, listed as Penicillin): decreased CLso titers
